According to ChEMBL document CHEMBL4422615, “Novel non-xanthine antagonist of the A2B adenosine receptor: From HTS hit to lead structure” (Eur J Med Chem, 2019):

What was measured:
Cytochrome P450 1A2 = molecular target: T1, Cytochrome P450 1A2 (Homo sapiens, UniProt P05177); test: Inhibition of CYP1A2 in human liver microsomes using phenacetin as substrate after 15 mins in presence of NADPH by LC-MS/MS analysis; assay type: ADME
T1 sequence (P05177 whole entry): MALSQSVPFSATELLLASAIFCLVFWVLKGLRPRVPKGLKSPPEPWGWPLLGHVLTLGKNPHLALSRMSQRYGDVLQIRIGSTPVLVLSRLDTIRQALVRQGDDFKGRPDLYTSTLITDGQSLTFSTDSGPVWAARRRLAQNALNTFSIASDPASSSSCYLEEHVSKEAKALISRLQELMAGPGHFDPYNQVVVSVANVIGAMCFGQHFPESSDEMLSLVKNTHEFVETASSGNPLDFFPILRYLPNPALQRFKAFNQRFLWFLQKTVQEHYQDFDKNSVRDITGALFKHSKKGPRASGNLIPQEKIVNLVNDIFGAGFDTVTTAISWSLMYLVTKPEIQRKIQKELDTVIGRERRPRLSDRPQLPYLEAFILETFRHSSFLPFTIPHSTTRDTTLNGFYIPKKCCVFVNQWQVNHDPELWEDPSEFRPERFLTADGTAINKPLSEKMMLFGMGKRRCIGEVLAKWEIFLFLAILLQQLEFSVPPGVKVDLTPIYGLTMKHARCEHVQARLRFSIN

[1] = molecular target: T2, Nuclear receptor subfamily 1 group I member 2 (Homo sapiens, UniProt O75469); test: Activation of PXR in human HepG2 cells assessed as induction of CYP3A4 expression by luciferase reporter gene assay; assay type: ADME, cell-based
T2 sequence (O75469 whole entry): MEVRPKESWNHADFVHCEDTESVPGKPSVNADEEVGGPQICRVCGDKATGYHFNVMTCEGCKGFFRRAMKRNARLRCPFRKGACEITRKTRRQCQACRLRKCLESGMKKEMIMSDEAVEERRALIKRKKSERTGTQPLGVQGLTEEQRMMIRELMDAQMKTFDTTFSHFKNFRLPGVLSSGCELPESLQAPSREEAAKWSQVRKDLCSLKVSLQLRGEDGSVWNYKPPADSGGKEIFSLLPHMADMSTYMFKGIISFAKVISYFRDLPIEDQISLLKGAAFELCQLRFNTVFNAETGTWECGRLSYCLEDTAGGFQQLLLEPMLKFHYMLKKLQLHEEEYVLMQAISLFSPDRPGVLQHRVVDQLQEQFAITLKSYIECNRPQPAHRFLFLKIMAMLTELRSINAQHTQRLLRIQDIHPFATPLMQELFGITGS

[2] = Intrinsic clearance in rat hepatocytes by MS/MS analysis; assay type: ADME, cell-based, Hepatocyte; settings: for predicted hepatic clearance: read-out: CLH (converted)
Cytochrome P450 3A4 [3] = molecular target: T3, Cytochrome P450 3A4 (Homo sapiens, UniProt P08684); test: Inhibition of CYP3A4 in human liver microsomes using midazolam as substrate preincubated for 30 mins followed by substrate addition measured after 10 mins in presence of NADPH by LC-MS/MS analysis; assay type: ADME
[4] = Efflux ratio in human Caco2 cells; assay type: ADME, cell-based; settings: Caco-2
Cytochrome P450 2C9 = Cytochrome P450 2C9 (Homo sapiens, UniProt P11712); test: Inhibition of CYP2C9 in human liver microsomes using diclofenac as substrate after 15 mins in presence of NADPH by LC-MS/MS analysis; assay type: ADME
Cytochrome P450 2D6 = Cytochrome P450 2D6 (Homo sapiens, UniProt P10635); test: Inhibition of CYP2D6 in human liver microsomes using dextromethorphan as substrate after 15 mins in presence of NADPH by LC-MS/MS analysis; assay type: ADME
PXR = molecular target: T4, PXR (Homo sapiens, UniProt O75469); test: Activation of PXR in human HepG2 cells assessed as induction of CYP3A4 expression at 2 x 10^-9 to 50 x 10^-6 mol/L by luciferase reporter gene assay relative to control; assay type: ADME, cell-based
T4 sequence (O75469 whole entry): T2 sequence (O75469 whole entry)

[5] = Blood clearance in mouse by measuring intrinsic clearance in mouse liver microsomes by MS/MS analysis; assay type: ADME
[6] = Apparent permeability from apical side to basolateral side in human Caco2 cells; assay type: ADME, cell-based; settings: Caco-2
[7] = Plasma clearance in mouse; assay type: ADME, organism-based
[8] = Blood clearance in rat by measuring Intrinsic clearance in rat hepatocytes by MS/MS analysis; assay type: ADME, cell-based
Cytochrome P450 3A4 [9] = molecular target: T3, Cytochrome P450 3A4; test: Time dependent inhibition of human liver microsomes CYP3A4 using midazolam as substrate in presence of NADPH by LC-MS/MS analysis; assay type: ADME
Cytochrome P450 2C8 = molecular target: T5, Cytochrome P450 2C8 (Homo sapiens, UniProt P10632); test: Inhibition of CYP2C8 in human liver microsomes using amodiaquine as substrate after 15 mins in presence of NADPH by LC-MS/MS analysis; assay type: ADME
T5 sequence (P10632 whole entry): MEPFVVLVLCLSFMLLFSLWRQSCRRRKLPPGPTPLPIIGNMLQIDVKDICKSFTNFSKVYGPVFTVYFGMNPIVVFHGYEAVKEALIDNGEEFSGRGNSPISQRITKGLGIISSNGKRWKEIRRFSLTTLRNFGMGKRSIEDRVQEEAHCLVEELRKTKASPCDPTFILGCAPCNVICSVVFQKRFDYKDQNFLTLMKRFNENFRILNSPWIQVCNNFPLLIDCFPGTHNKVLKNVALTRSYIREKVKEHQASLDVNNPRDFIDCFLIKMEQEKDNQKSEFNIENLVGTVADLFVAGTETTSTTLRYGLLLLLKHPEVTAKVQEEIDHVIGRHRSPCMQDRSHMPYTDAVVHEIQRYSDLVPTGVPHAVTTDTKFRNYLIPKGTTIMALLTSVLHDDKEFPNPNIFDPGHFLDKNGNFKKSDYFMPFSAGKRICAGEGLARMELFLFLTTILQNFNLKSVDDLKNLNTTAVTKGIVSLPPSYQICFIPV

Adenosine receptor A2b [10] = molecular target: T6, Adenosine receptor A2b (Homo sapiens, UniProt P29275); test: Displacement of [3H]DPCPX from human A2B adenosine receptor expressed in HEK293 cell membranes after 60 mins by radioligand displacement assay
T6 sequence (P29275 whole entry): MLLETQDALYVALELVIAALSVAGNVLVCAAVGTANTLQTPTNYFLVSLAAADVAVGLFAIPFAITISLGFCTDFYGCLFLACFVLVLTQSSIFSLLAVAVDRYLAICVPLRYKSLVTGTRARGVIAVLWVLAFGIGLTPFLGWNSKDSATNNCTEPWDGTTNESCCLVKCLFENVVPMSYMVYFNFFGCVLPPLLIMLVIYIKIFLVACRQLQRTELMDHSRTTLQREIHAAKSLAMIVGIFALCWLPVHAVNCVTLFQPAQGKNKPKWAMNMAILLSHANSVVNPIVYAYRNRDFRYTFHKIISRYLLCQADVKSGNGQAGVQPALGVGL

Adenosine receptor A2b [11] = molecular target: T6, Adenosine receptor A2b; test: Antagonist activity at recombinant human A2B adenosine receptor expressed in CHO cells after 3 to 4 hrs by luciferase reporter gene assay; assay type: cell-based
Homo sapiens [12] = species on record: Homo sapiens; test: Selectivity index, ratio of IC50 for human A3 adenosine receptor expressed in HEK293 cell membranes to IC50 for human A2B adenosine receptor expressed in HEK293 cell membranes; assay type: cell-based
Homo sapiens [13] = species on record: Homo sapiens; test: Selectivity index, ratio of IC50 for human A1 adenosine receptor expressed in CHO cell membranes to IC50 for human A2B adenosine receptor expressed in HEK293 cell membranes; assay type: cell-based
Homo sapiens [14] = species on record: Homo sapiens; test: Selectivity index, ratio of IC50 for human A2A adenosine receptor expressed in HEK293 cell membranes to IC50 for human A2B adenosine receptor expressed in HEK293 cell membranes; assay type: cell-based

T3 sequence (P08684 whole entry): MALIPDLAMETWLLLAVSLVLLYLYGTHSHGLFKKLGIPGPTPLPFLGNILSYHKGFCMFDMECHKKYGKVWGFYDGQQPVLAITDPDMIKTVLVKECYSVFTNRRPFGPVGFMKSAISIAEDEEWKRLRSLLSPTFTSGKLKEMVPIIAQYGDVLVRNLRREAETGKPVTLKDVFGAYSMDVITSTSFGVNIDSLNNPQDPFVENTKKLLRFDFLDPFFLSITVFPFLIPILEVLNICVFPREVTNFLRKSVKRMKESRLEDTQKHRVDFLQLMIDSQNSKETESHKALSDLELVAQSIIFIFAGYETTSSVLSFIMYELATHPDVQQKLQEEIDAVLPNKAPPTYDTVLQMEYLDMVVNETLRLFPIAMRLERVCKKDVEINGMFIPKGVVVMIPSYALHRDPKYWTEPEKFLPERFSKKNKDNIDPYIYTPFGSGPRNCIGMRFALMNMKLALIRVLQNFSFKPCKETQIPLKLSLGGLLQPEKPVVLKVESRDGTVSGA
Chain of Cytochrome P450 2D6 (P10635 whole entry): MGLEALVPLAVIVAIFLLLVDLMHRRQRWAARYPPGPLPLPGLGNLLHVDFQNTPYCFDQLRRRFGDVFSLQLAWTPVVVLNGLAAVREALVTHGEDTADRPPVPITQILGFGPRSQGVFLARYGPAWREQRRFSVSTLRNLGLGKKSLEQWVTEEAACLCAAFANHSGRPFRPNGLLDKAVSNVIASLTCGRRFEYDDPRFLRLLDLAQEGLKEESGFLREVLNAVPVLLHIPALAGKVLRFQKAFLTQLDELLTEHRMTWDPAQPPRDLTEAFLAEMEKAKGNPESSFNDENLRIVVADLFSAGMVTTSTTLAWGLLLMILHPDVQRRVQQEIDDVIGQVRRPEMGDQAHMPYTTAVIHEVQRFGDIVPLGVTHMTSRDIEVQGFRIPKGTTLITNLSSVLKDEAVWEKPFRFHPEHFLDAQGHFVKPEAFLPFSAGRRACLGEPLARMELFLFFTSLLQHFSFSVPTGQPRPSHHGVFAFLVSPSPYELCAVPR
Chain of Cytochrome P450 2C9 (P11712 whole entry): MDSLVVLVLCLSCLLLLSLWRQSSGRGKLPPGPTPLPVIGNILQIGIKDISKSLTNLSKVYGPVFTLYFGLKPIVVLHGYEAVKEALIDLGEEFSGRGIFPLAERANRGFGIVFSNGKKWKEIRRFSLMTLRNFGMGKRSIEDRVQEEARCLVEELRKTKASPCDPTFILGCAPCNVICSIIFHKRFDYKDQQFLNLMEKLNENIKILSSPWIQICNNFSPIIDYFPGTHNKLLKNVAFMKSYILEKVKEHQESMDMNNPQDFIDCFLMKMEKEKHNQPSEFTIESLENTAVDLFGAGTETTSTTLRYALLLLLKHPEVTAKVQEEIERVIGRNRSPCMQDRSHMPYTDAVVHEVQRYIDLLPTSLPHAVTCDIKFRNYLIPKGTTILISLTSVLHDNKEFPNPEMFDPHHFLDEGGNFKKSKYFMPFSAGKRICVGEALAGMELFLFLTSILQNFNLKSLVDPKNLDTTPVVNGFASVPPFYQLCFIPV

Row | SMILES | IC50 (Adenosine receptor A2b [10]) [nM] | Ratio IC50 (Homo sapiens [12]) | predicted hepatic clearance [2] [mL/min/kg] | Ratio IC50 (Homo sapiens [13]) | Ratio IC50 (Homo sapiens [14]) | also measured
1 | Cc1csc2c1c(=O)n(CCc1ccccc1)c(=O)n2CC1CCCO1 (stereo in doubt; 7) | 180 |  |  |  |  | IC50 (Cytochrome P450 1A2): 6500 nM; MEC [1]: 2 ×10⁻⁶ mol/L; CLhep predicted [2]: 66.7 mL/min/kg; IC50 (Cytochrome P450 3A4 [3]): 16000 nM; efflux ratio [4]: 0.69; IC50 (Cytochrome P450 2C9): 8300 nM; IC50 (Cytochrome P450 2D6): > 20000 nM; Emax (PXR): 85%; CLhep predicted [5]: 81.7 mL/min/kg; Papp A→B [6]: 21 ×10⁻⁶ cm/s; clearance [7]: 43.3 mL/min/kg; CLhep predicted [8]: 66.7 mL/min/kg; TDI (Cytochrome P450 3A4 [9]): Not Active; IC50 (Cytochrome P450 2C8): 10000 nM
2 | Cc1csc2c1c(=O)n(CCc1ccccc1)c(=O)n2CC1CCCO1 (racemic) | 520 |  |  |  |  | EC50 (Adenosine receptor A2b [11]): > 10000 nM
3 | COCCn1c(=O)n(CCc2ccccc2)c(=O)c2c(C)c(Cc3nc[nH]c3C)sc21 | 2.4 | 2800 | 66.7 | 93 | 180 | 
4 | CCN(CC)C(=O)c1sc2c(c1N)c(=O)n(C)c(=O)n2C | > 10000 | 0.61 | 53.3 | 0.62 | 0.73 | 
5 | CCN(CC)C(=O)c1sc2c(c1C)c(=O)n(CCc1ccccc1)c(=O)n2CCOC | 42 | 160 | 66.7 | 23 | 3 | 
6 | CCn1c(=O)c2c(C)c(C(=O)N3CC(O)C3)sc2n(CCC(F)(F)F)c1=O | 200 | 32 | 6.83 to 10 | 8 | 7 | 
7 | COCCn1c(=O)n(CCc2ccccc2)c(=O)c2c(C)c(Cn3ccnc3)sc21 | 12 | 530 | 58.3 | 33 | 120 | 
8 | Cc1csc2c1c(=O)n(CCc1ccccc1)c(=O)n2Cc1cnc[nH]1 | 1300 | 5 | 46.7 | 3 | 8 | 
9 | CCN(CC)C(=O)c1sc2c(c1C)c(=O)n(CCOC)c(=O)n2CCC(F)(F)F | 97 | 68 | 60 | 22 | 0.83 | 
10 | CCN(CC(C)(C)O)C(=O)c1sc2c(c1C)c(=O)n(CC)c(=O)n2CCC(F)(F)F | 39 | 170 | 35 | 11 | 19 | 
11 | COCCn1c(=O)n(CCc2ccccc2)c(=O)c2c(C)c(C(N)=O)sc21 | 430 | 16 | 65 | 8 | 18 | 
